Results on one compound are retold here after patent US20260048072A1, “PHARMACEUTICAL PREPARATION FOR INTRANASAL ADMINISTRATION AND PREPARATION METHOD THEREFOR” (CHENGDU EASTON BIOPHARMACEUTICALS CO., LTD., priority 2023, published 2026).

Common to all, as to format: in vivo
Holding throughout (conditions): beagle dogs, nasal spray, result in words

Data set [1] can be described thus: Experimental Example 2: pharmacokinetic experiment, nalmefene in plasma by LC-MS/MS. The source says: Beagle dogs (body weight of 12 kg-15 kg, supplier: Suzhou Xishan Zhongke Experimental Animal Co., Ltd., license number: SCXK(Su)2018-0001)
• EDTA-K2 anticoagulant tube: brand Kangweishi (KWS) • Liquid chromatograph (Shimadzu, LC-30AD), mass spectrometer (SCIEX Triple Quad 4500) • LC-MS/MS detection conditions: • Instrument: UPLC-MS/MS (AB API 4500) • MS conditions: Electrospray ionization (ESI) source, positive ion detection […]
Experimental method of nasal administration for Example 1: Four beagle dogs were administered with 1 dose of a nasal spray preparation of nalmefene hydrochloride by nasal spray respectively, and 2 mL of blood was collected from the forelimb vein before administration and at 2 min, 5 min, 10 min, 15 min, 30 min, 45 min, 1 h, 2 h, 4 h and 6 h after administration. […] The content of nalmefene in the plasma was detected by LC-MS/MS. […]
Experimental method of intramuscular injection for Comparative Example 2: Four beagle dogs were administered 1 dose of an injection of nalmefene hydrochloride (1.5 ml: 1.5 mg) intramuscularly respectively, and 2 mL of blood was collected from the forelimb vein before administration and at 2 min, 5 min, 10 min, 15 min, 30 min, 45 min, 1 h, 2 h, 4 h and 6 h after administration. […] The content of nalmefene in the plasma was detected by LC-MS/MS.

A short description of data set [2]: Experimental Example 4: pharmacokinetic experiment, nalmefene in plasma by LC-MS/MS. The source says:
Beagle dogs (body weight of 8 kg-10 kg, supplier: Suzhou Xishan Zhongke Experimental Animal Co., Ltd. and Chengdu Dossy Experimental Animal Co., Ltd., license numbers: SCXK(Su)2018-0001 and SCXK(1)2019-031)
(§1) • EDTA-K2 anticoagulant tube: brand Kangweishi (KWS) • Liquid chromatograph (Shimadzu, LC-30AD), mass spectrometer (SCIEX Triple Quad 4500) • LC-MS/MS detection conditions: • Instrument: UPLC-MS/MS (AB API 4500) • MS conditions: Electrospray ionization (ESI) source, positive ion detection
(§2) HPLC conditions: mobile phase A: 90% water+10% acetonitrile+0.1% formic acid+2 mM ammonium acetate; mobile phase B: 90% acetonitrile+10% water+0.1% formic acid+2 mM ammonium acetate; chromatographic column: Waters ACQUITY UPLC BEH C18 (2.1×50 mm, 1.7 μm); flow rate: 0.50 mL/min; chromatographic column temperature: 40° C.
Experimental method of nasal administration for Example 9: Four beagle dogs were administered with 1 dose of a nasal spray preparation of nalmefene hydrochloride by nasal spray respectively, and 2 mL of blood was collected from the forelimb vein before administration and at 2 min, 5 min, 10 min, 15 min, 30 min, 45 min, 1 h, 2 h, 4 h and 6 h after administration. […] The content of nalmefene in the plasma was detected by LC-MS/MS. […]

Data set [3] in a line: Experimental Example 3: pharmacokinetic experiment, nalmefene in plasma by LC-MS/MS. As to the method: Beagle dogs (body weight of 8 kg-10 kg, supplier: Chengdu Dossy Experimental Animal Co., Ltd., license number: SCXK(1)2019-031)
as §1, §2
Experimental method of nasal administration for Example 3: Four beagle dogs were administered with 1 dose of a nasal spray preparation of nalmefene hydrochloride by nasal spray respectively, and 2 mL of blood was collected from the forelimb vein before administration and at 2 min, 5 min, 10 min, 15 min, 30 min, 45 min, 1 h, 2 h, 4 h and 6 h after administration. The blood sample was placed in an EDTA-K2 anticoagulant tube, centrifuged at 4500 r/min for 10 min, and 50 μL of plasma was separated into a centrifuge tube. […] The content of nalmefene in the plasma was detected by LC-MS/MS. […]

For `CCCCCCCCCCCCOP(=O)([O-])OCC[N+](C)(C)C` [dodecylphosphocholine, Dodecylphosphocholine], the “absorption of nalmefene hydrochloride in the nasal cavity, compared with not using dodecylphosphocholine” value in data set [1] is “significantly accelerate”. Moreover, the “effect to accelerate the absorption of nalmefene hydrochloride in the nasal cavity compared with n-dodecyl-β-D-maltoside” value in data set [2] and in data set [3] was “superior” in each case.
